Measurements reported in the supplement of paper PMC11061612.

How the values were obtained:
BE2-M17 (Neuroblastoma) = experiment: Bliss excess, mean over the matrix (fraction); higher = more synergy
Summary of the method: (§1)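 After 24 hours at 37°C and 5% CO2 in 1536-well plates, cells in DMEM/F12 or RPMI plus 10% FBS received two-drug dose matrices for 72 hours. Viability came from CellTiter-Glo 2.0 luminescence and was scaled as inhibition, anchored at 0 by vehicle wells and at 1 by blank wells. Combination Emax is taken as the second-highest inhibition in the matrix, and Bliss excess as the observed combination effect less EA + EB − EA·EB, with EA and EB the single-agent effects.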

[1] = system: BFTC-909 (Kidney Carcinoma); experiment: as above
Summary of the method: as §1

BPH-1 (Non-Cancerous) = experiment: as above
Summary of the method: as §1

[2] = system: Detroit562 (Head and Neck Carcinoma); experiment: as above
Summary of the method: as §1

[3] = system: ESS-1 (Other Solid Carcinomas); experiment: as above
Summary of the method: as §1

[4] = system: HeLa (Cervical Carcinoma); experiment: as above
Summary of the method: as §1

[5] = system: HuCCT1 (Biliary Tract Carcinoma); experiment: as above
Summary of the method: as §1

[6] = system: HuH-7 (Hepatocellular Carcinoma); experiment: as above
Summary of the method: as §1

[7] = system: KMRC-20 (Kidney Carcinoma); experiment: as above
Summary of the method: as §1

[8] = system: L-428 (Hodgkin's Lymphoma); experiment: as above
Summary of the method: as §1

MPP-89 (Mesothelioma) = experiment: as above
Summary of the method: as §1

[9] = system: NCI-H524 (Small Cell Lung Carcinoma); experiment: as above
Summary of the method: as §1

[10] = system: SAS (Oral Cavity Carcinoma); experiment: as above
Summary of the method: as §1

[11] = system: SNU-16 (Gastric Carcinoma); experiment: as above
Summary of the method: as §1

[12] = system: TGBC1TKB (Biliary Tract Carcinoma); experiment: as above
Summary of the method: as §1

[13] = system: BE-13 (T-Lymphoblastic Leukemia); experiment: combination Emax (second highest fraction inhibited in the dose matrix, 72 h); higher = more inhibition; extreme values may be limits of the assay
Summary of the method: as §1

[14] = system: CAL-33 (Oral Cavity Carcinoma); experiment: as above
Summary of the method: as §1

KS-1 (Glioblastoma) = experiment: as above
Summary of the method: as §1

[15] = system: OE21 (Esophageal Squamous Cell Carcinoma); experiment: as above
Summary of the method: as §1

[16] = system: TGBC1TKB (Biliary Tract Carcinoma); experiment: as above
Summary of the method: as §1
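Throughout, for Bliss excess, mean over the matrix: after 72 h of two-drug dosing.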

CN(CCO)CC[C@H](CSc1ccccc1)Nc1ccc(S(=O)(=O)NC(=O)c2ccc(N3CCC([C@@H](O)c4ccccc4-c4ccc(Cl)cc4)CC3)cc2)cc1S(=O)(=O)C(F)(F)F [AZD4320] + C1CN(CCC1(C(=O)N[C@@H](CCO)C2=CC=C(C=C2)Cl)N)C3=NC=NC4=C3C=CN4 [Capivasertib] (first compound max 1 µM, 7x7, partner max 3 µM)
Bliss excess (BE2-M17 (Neuroblastoma)): 0.006
Bliss excess [1]: -0.0955
Bliss excess (BPH-1 (Non-Cancerous)): -0.0496
Bliss excess [2]: -0.0535
Bliss excess [3]: 0.0028
Bliss excess [4]: -0.0377
Bliss excess [5]: -0.0536
Bliss excess [6]: -0.0402
Bliss excess [7]: -0.0546
Bliss excess [8]: -0.0146
Bliss excess (MPP-89 (Mesothelioma)): -0.0234
Bliss excess [9]: -0.0517
Bliss excess [10]: -0.0369
Bliss excess [11]: 0.0015
Bliss excess [12]: -0.0306
combination Emax [13]: 0.994
combination Emax [14]: 0.363
combination Emax (KS-1 (Glioblastoma)): 0.296
combination Emax [15]: 0.441
combination Emax [16]: 0.466

CN(CCO)CC[C@H](CSc1ccccc1)Nc1ccc(S(=O)(=O)NC(=O)c2ccc(N3CCC([C@@H](O)c4ccccc4-c4ccc(Cl)cc4)CC3)cc2)cc1S(=O)(=O)C(F)(F)F [AZD4320] + C=CCn1c(=O)c2cnc(Nc3ccc(N4CCN(C)CC4)cc3)nc2n1-c1cccc(C(C)(C)O)n1 [AZD1775] (first compound max 1 µM, partner max 1 µM)
Bliss excess (BE2-M17 (Neuroblastoma)): 0.0199
Bliss excess [1]: 0.0577
Bliss excess (BPH-1 (Non-Cancerous)): 0.0378
Bliss excess [2]: -0.0067
Bliss excess [3]: 0.002
Bliss excess [4]: -0.0523
Bliss excess [5]: -0.0514
Bliss excess [6]: 0.0346
Bliss excess [7]: 0.0331
Bliss excess [8]: 0.0961
Bliss excess (MPP-89 (Mesothelioma)): 0.0351
Bliss excess [9]: 0.055
Bliss excess [10]: 0.05
Bliss excess [11]: 0.0049
Bliss excess [12]: 0.0352
combination Emax [13]: 1
combination Emax [14]: 0.859
combination Emax (KS-1 (Glioblastoma)): 0.549
combination Emax [15]: 0.641
combination Emax [16]: 0.508

CN(CCO)CC[C@H](CSc1ccccc1)Nc1ccc(S(=O)(=O)NC(=O)c2ccc(N3CCC([C@@H](O)c4ccccc4-c4ccc(Cl)cc4)CC3)cc2)cc1S(=O)(=O)C(F)(F)F [AZD4320] + CN(C)CCCOc1ccc(-c2ccc3ncc4c(c3c2)n(C2CCOCC2)c(=O)n4C)cn1 [AZD0156] (first compound max 1 µM, 7x7, partner max 1 µM)
Bliss excess (BE2-M17 (Neuroblastoma)): -0.0171
Bliss excess [1]: 0.009
Bliss excess (BPH-1 (Non-Cancerous)): -0.0216
Bliss excess [2]: -0.0332
Bliss excess [3]: 0.039
Bliss excess [4]: -0.0321
Bliss excess [5]: -0.0539
Bliss excess [6]: -0.0129
Bliss excess [7]: -0.0377
Bliss excess [8]: 0.0464
Bliss excess (MPP-89 (Mesothelioma)): -0.0339
Bliss excess [9]: 0.0124
Bliss excess [10]: -0.0472
Bliss excess [11]: -0.0207
Bliss excess [12]: -0.022
combination Emax [13]: 0.977
combination Emax [14]: 0.198
combination Emax (KS-1 (Glioblastoma)): 0.239
combination Emax [15]: 0.158
combination Emax [16]: 0.492

CN(CCO)CC[C@H](CSc1ccccc1)Nc1ccc(S(=O)(=O)NC(=O)c2ccc(N3CCC([C@@H](O)c4ccccc4-c4ccc(Cl)cc4)CC3)cc2)cc1S(=O)(=O)C(F)(F)F [AZD4320] + Cn1cnc2c(F)c(Nc3ccc(Br)cc3Cl)c(C(=O)NOCCO)cc21 [Selumetinib] (first compound max 1 µM, 7x7, partner max 3 µM)
Bliss excess (BE2-M17 (Neuroblastoma)): 0.0929
Bliss excess [1]: 0.0212
Bliss excess (BPH-1 (Non-Cancerous)): 0.0021
Bliss excess [2]: 0.072
Bliss excess [3]: -0.0507
Bliss excess [4]: -0.0092
Bliss excess [5]: 0.0309
Bliss excess [6]: 0.0069
Bliss excess [7]: 0.0022
Bliss excess [8]: 0.0143
Bliss excess (MPP-89 (Mesothelioma)): -0.0056
Bliss excess [9]: -0.0061
Bliss excess [10]: 0.043
Bliss excess [11]: -0.0054
Bliss excess [12]: -0.012
combination Emax [13]: 0.995
combination Emax [14]: 0.701
combination Emax (KS-1 (Glioblastoma)): 0.341
combination Emax [15]: 0.413
combination Emax [16]: 0.679

COc1nnc2ccc(N3CCC(c4ccc(OCCN5CCN(C)C(=O)[C@H]5C)cc4)CC3)nn12 [AZD5153] + C=CCn1c(=O)c2cnc(Nc3ccc(N4CCN(C)CC4)cc3)nc2n1-c1cccc(C(C)(C)O)n1 [AZD1775] (first compound max 1 µM, partner max 1 µM)
Bliss excess (BE2-M17 (Neuroblastoma)): 0.0026
Bliss excess [1]: -0.0723
Bliss excess (BPH-1 (Non-Cancerous)): 0.0246
Bliss excess [2]: -0.0535
Bliss excess [3]: -0.0749
Bliss excess [4]: -0.072
Bliss excess [5]: -0.0778
Bliss excess [6]: 0.0129
Bliss excess [7]: -0.0446
Bliss excess [8]: -0.0411
Bliss excess (MPP-89 (Mesothelioma)): -0.0669
Bliss excess [9]: -0.0337
Bliss excess [10]: -0.0302
Bliss excess [11]: -0.0385
Bliss excess [12]: 0.015
combination Emax [13]: 1
combination Emax [14]: 0.724
combination Emax (KS-1 (Glioblastoma)): 0.686
combination Emax [15]: 0.742
combination Emax [16]: 0.296

COc1nnc2ccc(N3CCC(c4ccc(OCCN5CCN(C)C(=O)[C@H]5C)cc4)CC3)nn12 [AZD5153] + CC1(C)CCC(CN2CCN(c3ccc(C(=O)NS(=O)(=O)c4ccc(NCC5CCOCC5)c([N+](=O)[O-])c4)c(Oc4cnc5[nH]ccc5c4)c3)CC2)=C(c2ccc(Cl)cc2)C1 [Venetoclax] (first compound max 1 µM, 7x7, partner max 1 µM)
Bliss excess (BE2-M17 (Neuroblastoma)): 0.0308
Bliss excess [1]: -0.105
Bliss excess (BPH-1 (Non-Cancerous)): -0.0574
Bliss excess [2]: -0.0552
Bliss excess [3]: -0.017
Bliss excess [4]: -0.0574
Bliss excess [5]: -0.0517
Bliss excess [6]: -0.0987
Bliss excess [7]: -0.0096
Bliss excess [8]: -0.082
Bliss excess (MPP-89 (Mesothelioma)): -0.0166
Bliss excess [9]: -0.037
Bliss excess [10]: -0.0325
Bliss excess [11]: -0.0522
Bliss excess [12]: 0.0071
combination Emax [13]: 0.708
combination Emax [14]: 0.402
combination Emax (KS-1 (Glioblastoma)): 0.649
combination Emax [15]: 0.662
combination Emax [16]: 0.293
